For one assay, the target named is T1, AhR (Homo sapiens, UniProt P35869).
T1 construct: expressed in transfected cells; host or cells: HepG2
T1 sequence (P35869 11-848): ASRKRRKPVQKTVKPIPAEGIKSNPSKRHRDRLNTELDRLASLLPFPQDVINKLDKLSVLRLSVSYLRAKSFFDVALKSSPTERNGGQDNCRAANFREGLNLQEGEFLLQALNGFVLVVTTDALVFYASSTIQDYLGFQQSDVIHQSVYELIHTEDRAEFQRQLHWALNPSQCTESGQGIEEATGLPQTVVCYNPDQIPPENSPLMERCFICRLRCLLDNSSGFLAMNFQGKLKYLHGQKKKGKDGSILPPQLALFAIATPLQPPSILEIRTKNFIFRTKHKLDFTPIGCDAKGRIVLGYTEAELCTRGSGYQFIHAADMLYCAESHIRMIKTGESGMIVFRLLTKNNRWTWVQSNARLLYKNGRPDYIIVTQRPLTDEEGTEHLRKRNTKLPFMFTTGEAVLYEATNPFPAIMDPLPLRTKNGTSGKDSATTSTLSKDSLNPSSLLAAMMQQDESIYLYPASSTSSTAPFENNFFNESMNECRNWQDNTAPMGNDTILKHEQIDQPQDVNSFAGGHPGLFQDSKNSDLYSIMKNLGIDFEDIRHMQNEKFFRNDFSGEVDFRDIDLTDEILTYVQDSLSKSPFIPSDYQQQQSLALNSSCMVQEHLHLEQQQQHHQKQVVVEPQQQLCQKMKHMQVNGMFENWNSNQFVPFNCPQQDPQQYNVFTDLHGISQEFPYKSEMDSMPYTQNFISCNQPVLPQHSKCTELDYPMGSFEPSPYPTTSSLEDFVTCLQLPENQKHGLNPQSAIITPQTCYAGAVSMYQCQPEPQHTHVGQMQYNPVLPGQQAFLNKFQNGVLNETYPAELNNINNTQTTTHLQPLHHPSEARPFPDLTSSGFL
The assay can be described thus: AhR agonism luciferase reporter gene assay in transfected HepG2 cells. It is filed as cell-based. The settings on record: 16 h, ratio of treatment group to blank. Here is the method: When the cell confluence reached 80%, the culture medium was replaced with a fresh one, and the transfection working solution was added for transfection overnight. The formula of the working solution is as follows: 1 mL of Opti-MEM+7.5 μg of pCMV-AHR+7.5 μg of pTK-3×DRE-Luc+30 μL of lipo6000. • (2) Cell plating: The transfected cells were digested, prepared into a cell suspension at a concentration of 3×10^5 cells/mL, and then plated on a 96-well plate at 100 µL/well for adherent culture overnight. • (3) Formulation
The prepared drug-containing culture media and a blank culture medium were added to the 96-well plate described above at 100 μL/well.

The subject of another assay is atopic dermatitis. The assay is described as follows: DNFB-induced atopic dermatitis mouse model (AD Score). Also on record: scale not given here. The settings on record: DNFB mice. The class given is in vivo, BALB/C mice. As to the method: 56 clean-grade BALB/C mice aged 6-8 weeks were subjected to 5 days of adaptive feeding and then randomized into 7 groups of 8 mice each: • A. Blank control group • B. Modeling+solvent group • C. Modeling+blank matrix group • D. Modeling+positive drug mometasone furoate group • E. Modeling+1 wt % of benvitimod group • F. […] The animal experiments were conducted in accordance with the Experimental Animal Feeding, Management and Use Guidelines of China Pharmaceutical University and in compliance with animal study ethics and regulations. As shown in the above procedures, the solvent control or DNFB was given in the morning for modeling; from day 5, the test compound ointment was administered once every afternoon at 50 mg/dose evenly on the skin surface. The specific administration method is as shown above; Specific procedures: […] Severity of atopic dermatitis was scored using the AD Score criteria The severity of the appearance of dermatitis was evaluated based on 4 indicators: A. erythema/bleeding; B. dryness; C. effusion/crusting; D. edema.

Marks after values point to notes of the source that are not given here.

With `Oc1cc(/C=C/c2ccccc2)cc(O)c1C1CCCC1` [Compound 1, (E)-2-cyclopentyl-5-styryl-1,3-benzenediol], the “AhR receptor agonistic fold” value turned out to be 3.1 ± 0.3 fold on AhR (drug concentration 0.1 μM) and 12.1 ± 0.4 fold at AhR (drug concentration 1 μM).
As for `Oc1cc(/C=C/c2ccc(Cl)cc2)cc(O)c1C1CCCC1` [Compound 3, (E)-2-cyclopentyl-5-(4-chlorostyryl)-1,3-benzenediol], the “AhR receptor agonistic fold” value on AhR (drug concentration 0.1 μM) is 4.0 ± 0.5 fold; on AhR (drug concentration 1 μM), 18.2 ± 0.6 fold.
Taken in the same sequence, the figures for `Oc1cc(/C=C/c2ccc(Br)cc2)cc(O)c1C1CCCC1` [Compound 4, (E)-2-cyclopentyl-5-(4-bromostyryl)-1,3-benzenediol] were 7.8 ± 0.1 fold and 14.4 ± 0.3 fold.
On the same counts, the results for `Oc1cc(/C=C/c2ccccc2)cc(O)c1C1CCCCC1` [Compound 5, (E)-2-cyclohexyl-5-styryl-1,3-benzenediol] are 5.8 ± 0.3 fold and 16.6 ± 0.7 fold.
For `Oc1cc(/C=C/c2ccc(Cl)cc2)cc(O)c1C1CCCCC1` [Compound 7, (E)-2-cyclohexyl-5-(4-chlorostyryl)-1,3-benzenediol], the “AhR receptor agonistic fold” value on AhR (drug concentration 0.1 μM) is reported as 5.1 ± 0.4 fold; at AhR (drug concentration 1 μM) it was 9.5 ± 0.5 fold.
On the same counts, the results for `Oc1cc(/C=C/c2ccc(Br)cc2)cc(O)c1C1CCCCC1` [Compound 8, (E)-2-cyclohexyl-5-(4-bromostyryl)-1,3-benzenediol] are 5.2 ± 0.2 fold and 11.8 ± 0.7 fold.
Taken in the same sequence, the figures for `Oc1cc(/C=C/c2ccccc2Cl)cc(O)c1C1CCCCC1` [Compound 9, (E)-2-cyclohexyl-5-(2-chlorostyryl)-1,3-benzenediol] were 4.9 ± 1.9 fold and 17.1 ± 2.5 fold.
Turning to `Oc1cc(/C=C/c2cccc(Cl)c2)cc(O)c1C1CCCCC1` [Compound 10, (E)-2-cyclohexyl-5-(3-chlorostyryl)-1,3-benzenediol], the “AhR receptor agonistic fold” value at AhR (drug concentration 0.1 μM) was determined as 4.5 ± 1.0 fold; on AhR (drug concentration 1 μM), 14.7 ± 2.3 fold.
Consider `Oc1cc(/C=C/c2ccc(F)c(F)c2)cc(O)c1C1CCCCC1` [Compound 11, (E)-2-cyclohexyl-5-(3,4-difluorostyryl)-1,3-benzenediol], for which the “AhR receptor agonistic fold” value on AhR (drug concentration 0.1 μM) was determined as 6.6 ± 1.6 fold; on AhR (drug concentration 1 μM), 20.0 ± 1.6 fold.
On the same counts, the results for `Oc1cc(/C=C/c2cccc(F)c2F)cc(O)c1C1CCCCC1` [Compound 12, (E)-2-cyclohexyl-5-(2,3-difluorostyryl)-1,3-benzenediol] are 6.8 ± 0.1 fold and 17.1 ± 0.6 fold.
On the same counts, the results for `Oc1cc(/C=C/c2cc(F)cc(F)c2)cc(O)c1C1CCCCC1` [Compound 13, (E)-2-cyclohexyl-5-(3,5-difluorostyryl)-1,3-benzenediol] are 9.2 ± 1.2 fold and 14.6 ± 0.9 fold.
On the same counts, the results for `Oc1cc(/C=C/c2ccc(F)c(F)c2F)cc(O)c1C1CCCCC1` [Compound 14, (E)-2-cyclohexyl-5-(2,3,4-trifluorostyryl)-1,3-benzenediol] are 13.1 ± 2.4 fold and 20.8 ± 1.4 fold.
In the case of `Oc1cc(/C=C/c2cc(F)c(F)c(F)c2)cc(O)c1C1CCCCC1` [Compound 15, (E)-2-cyclohexyl-5-(3,4,5-trifluorostyryl)-1,3-benzenediol], the “AhR receptor agonistic fold” value at AhR (drug concentration 0.1 μM) was 7.5 ± 1.8 fold; at AhR (drug concentration 1 μM), 22.2 ± 2.8 fold.
On the same counts, the results for `Oc1cc(/C=C/c2cccc(F)c2)cc(O)c1C1CCCC1` [Compound 16, (E)-2-cyclopentyl-5-(3-fluorostyryl)-1,3-benzenediol] are 6.0 ± 0.8 fold and 18.5 ± 2.9 fold.
Regarding `C[C@@H]1C[C@H]2[C@@H]3CCC4=CC(=O)C=C[C@]4(C)[C@@]3(Cl)[C@@H](O)C[C@]2(C)[C@@]1(OC(=O)c1ccco1)C(=O)CCl` [Mometasone furoate, mometasone furoate, reference compound], the “Back AD score” value was 0.00 ± 0.00 with atopic dermatitis (day 0, before ointment treatment (from day 5)); 3.50 ± 0.61 in the assay on atopic dermatitis (day 4, before ointment treatment (from day 5)); 5.38 ± 1.65**^b with atopic dermatitis (day 6, ointment 50 mg once daily from day 5 (1.2 wt % 2#/6#, 1 wt % benvitimod)); 6.50 ± 1.22**^a in the assay on atopic dermatitis (day 8, ointment 50 mg once daily from day 5 (1.2 wt % 2#/6#, 1 wt % benvitimod)); 5.00 ± 1.00**^aabb in the assay with atopic dermatitis (day 10, ointment 50 mg once daily from day 5 (1.2 wt % 2#/6#, 1 wt % benvitimod)).
As for `CC(C)c1c(O)cc(/C=C/c2ccc(F)cc2)cc1O` [Reference 2#, reference compound], the “AhR receptor agonistic fold” value on AhR (drug concentration 0.1 μM) is listed as 2.5 ± 1.1 fold; on AhR (drug concentration 1 μM), 7.8 ± 1.0 fold.
On the same counts, the results for `O=Cc1c2[nH]c3ccccc3c2cc2[nH]c3ccccc3c12` [Reference 3#, FICZ, reference compound] are 2.3 ± 0.2 fold and 4.3 ± 0.2 fold.

Source of the values: US20250382250A1, “STILBENE DERIVATIVE AS AHR AGONIST AND USE THEREOF” (NANJING GRITPHARMACO., LTD., priority 2022, published 2025).
